This is an account of results in article PMC2033785, “High-affinity binding sites for gastrin-releasing peptide on human colorectal cancer tissue but not uninvolved mucosa” (British Journal of Cancer, 1995).

No end group written: not given here. Some results are limits rather than exact numbers.

Test [1] deals with bombesin binding sites on human colorectal cancer tissue (GRP-preferring subtype). Briefly: Radioligand displacement binding on human colorectal cancer membranes. Particulars: for Relative affinity for the binding site (GRP, BBS >> NMB) / Radioligand displacement achieved over the concentration range: five binding site-positive tumours; for Relative affinity for the binding site (GRP, BBS >> NMB): displacement of [125I]Tyr4-bombesin; for Radioligand displacement achieved over the concentration range: [125I]Tyr4-BBS.

For another test, the system named is human colorectal cancers. Also noted: method as in Radulovic et al., 1992. Particulars: ref Radulovic et al., 1992; cited from earlier work.
The test system of a further test is matched mucosa. Further details: method as in Radulovic et al., 1992. Particulars: ref Radulovic et al., 1992; cited from earlier work.
The test system of test [2] is mouse colon cancer cell line MC26. Also noted: method as in Narayan et al., 1990. Particulars: [3H]thymidine incorporation and MTT assays; ref Narayan et al., 1990; cited from earlier work.
[3] abbreviates: competitor 1 x 10-11 to 1 x 10^-6 M.

In the case of neuromedin B [NMB], in test [1], the “Relative affinity for the binding site (GRP, BBS >> NMB)” value (from here on “Relative affinity for the binding site”) was “GRP, BBS >> NMB”. In test [1] (membrane preparations, approximately 200 pM radioligand, competitor 1 x 10-11 to 1 x 10^-6 M, six tubes per point, mean (± s.e.m.) of the five binding site-positive cancers), the “IC50 for displacement of [125I]Tyr4-BBS” value is recorded as “> lOOO”. In test [1] (of the five binding site-positive tumours, competitor 1 x 10-11 to 1 x 10^-6 M), the “50% displacement of specific binding: number of tumours in which achieved” value is “only achieved in two of the five binding site-positive tumours”.

For bombesin [BBS], the “Percentage of human colorectal cancers expressing bombesin binding sites” value in the test with human colorectal cancers is 40%. Further, the “Matched mucosa binding site positive” value in the test with matched mucosa was “none of the matched mucosa were binding site positive”. Besides, in test [1] (setting [3]), the “Radioligand displacement achieved over the concentration range” value is “Full radioligand displacement was achieved”. Also, the “Relative affinity for the binding site” value in test [1] is listed as “GRP, BBS >> NMB”. Also, in test [2], the Effect on growth result is listed as “stimulated growth”.

As for “gastrin-releasing peptide (VPLPAGGGTVLTKMYPRGNHWAVGHLM; ends and bridges not checked; UniProt P07492 24-50, looked up) [GRP, mammalian bombesin-like peptide (Bachem)]”, the “Radioligand displacement achieved over the concentration range” value in test [1] (setting [3]) is “Full radioligand displacement was achieved”. In test [1], the “Relative affinity for the binding site” value is “GRP, BBS >> NMB”.
